Experimental data: patent publication US12146177B2, “Methods of making and using E,Z,E-geranylgeranyl diphosphate” (WiSys Technology Foundation, Inc., priority 2020, dated 2024)

Tested on: Escherichia coli C41
Assay type: cell-based
Conditions: compound itself not applied to cells

## CC(C)=CCC/C(C)=C/CC/C(C)=C\CC/C(C)=C/COP(=O)(O)OP(=O)(O)O [E,Z,E-GGPP, E,Z,E-Geranylgeranyl pyrophosphate]
  bactericidal effect on E. coli: bactericidal agent
